According to publication PMC4503722, “Novel Phenotypic Outcomes Identified for a Public Collection of Approved Drugs from a Publicly Accessible Panel of Assays” (PLoS ONE, 2015):
Where two headings read alike, the source gives them in different places.

Assays:
Assay in all cases: cells
Assay type in all cases: cell-based
DLD-1 = system: DLD-1
HT-29 = system: HT-29
SW480 = system: SW480
Colo320 = system: Colo320
RKO = system: RKO
SNU-C1 = system: SNU-C1
HCT116 = system: HCT116

SMILES: CN(CCOc1ccc(CC2SC(=O)NC2=O)cc1)c1ccccn1 (stereo not shown) [NCGC00095124-08]
- Basal_Viability ATP DLD-1 IC50/EC50 (DLD-1; assay number 23, basal): > 20 µM
- Basal_Viability ATP HT-29 IC50/EC50 (HT-29; assay number 28, basal): > 20 µM
- Basal_Viability ATP SW480 IC50/EC50 (SW480; assay number 24, basal): > 20 µM
- Basal_Viability ATP Colo 320 IC50/EC50 (Colo320; assay number 27, basal): > 20 µM
- Basal_Viability ATP RKO IC50/EC50 (RKO; assay number 29, basal): > 20 µM
- Basal_Viability ATP SNU-C1 IC50/EC50 (SNU-C1; assay number 30, basal): 8.6851 µM
- Basal_Viability ATP HCT116 IC50/EC50 (HCT116; assay number 25, basal): > 20 µM

SMILES: Cc1onc(-c2ccccc2)c1-c1ccc(S(N)(=O)=O)cc1 [NCGC00095129-06]
- Basal_Viability ATP DLD-1 IC50/EC50 (DLD-1): > 20 µM
- Basal_Viability ATP HT-29 IC50/EC50 (HT-29): > 20 µM
- Basal_Viability ATP SW480 IC50/EC50 (SW480): > 20 µM
- Basal_Viability ATP Colo 320 IC50/EC50 (Colo320): > 20 µM
- Basal_Viability ATP RKO IC50/EC50 (RKO): > 20 µM
- Basal_Viability ATP SNU-C1 IC50/EC50 (SNU-C1): > 20 µM
- Basal_Viability ATP HCT116 IC50/EC50 (HCT116): > 20 µM

SMILES: CNS(=O)(=O)Cc1ccc2[nH]cc(CCN(C)C)c2c1 [NCGC00095838-04]
- Basal_Viability ATP DLD-1 IC50/EC50 (DLD-1; assay number 23, basal): > 20 µM
- Basal_Viability ATP HT-29 IC50/EC50 (HT-29; assay number 28, basal): > 20 µM
- Basal_Viability ATP SW480 IC50/EC50 (SW480; assay number 24, basal): > 6.6667 µM
- Basal_Viability ATP Colo 320 IC50/EC50 (Colo320; assay number 27, basal): > 20 µM
- Basal_Viability ATP RKO IC50/EC50 (RKO; assay number 29, basal): > 20 µM
- Basal_Viability ATP SNU-C1 IC50/EC50 (SNU-C1; assay number 30, basal): > 20 µM
- Basal_Viability ATP HCT116 IC50/EC50 (HCT116; assay number 25, basal): > 20 µM

SMILES: CCN(CCO)CCCC(C)Nc1ccnc2cc(Cl)ccc12.O=S(=O)(O)O (stereo not shown) [NCGC00159483-04]
- Basal_Viability ATP DLD-1 IC50/EC50 (DLD-1; assay number 23, basal): > 20 µM
- Basal_Viability ATP HT-29 IC50/EC50 (HT-29; assay number 28, basal): > 20 µM
- Basal_Viability ATP SW480 IC50/EC50 (SW480; assay number 24, basal): > 20 µM
- Basal_Viability ATP Colo 320 IC50/EC50 (Colo320; assay number 27, basal): > 20 µM
- Basal_Viability ATP RKO IC50/EC50 (RKO; assay number 29, basal): > 20 µM
- Basal_Viability ATP SNU-C1 IC50/EC50 (SNU-C1; assay number 30, basal): > 20 µM
- Basal_Viability ATP HCT116 IC50/EC50 (HCT116; assay number 25, basal): > 20 µM

SMILES: CC=CC1=C(C(=O)O)N2C(=O)[C@@H](NC(=O)[C@H](N)c3ccc(O)cc3)[C@H]2SC1 [NCGC00159513-03]
- Basal_Viability ATP DLD-1 IC50/EC50 (DLD-1; assay number 23): > 20 µM
- Basal_Viability ATP HT-29 IC50/EC50 (HT-29; assay number 28): > 20 µM
- Basal_Viability ATP SW480 IC50/EC50 (SW480; assay number 24): > 20 µM
- Basal_Viability ATP Colo 320 IC50/EC50 (Colo320; assay number 27): > 20 µM
- Basal_Viability ATP RKO IC50/EC50 (RKO; assay number 29): > 20 µM
- Basal_Viability ATP SNU-C1 IC50/EC50 (SNU-C1; assay number 30): > 20 µM
- Basal_Viability ATP HCT116 IC50/EC50 (HCT116; assay number 25, basal): > 20 µM

SMILES: OC[C@@H](O)[C@H](O)[C@H](O)[C@@H](O)CO [NCGC00166072-02]
- Basal_Viability ATP DLD-1 IC50/EC50 (DLD-1; assay number 23, basal): > 20 µM
- Basal_Viability ATP HT-29 IC50/EC50 (HT-29; assay number 28, basal): > 20 µM
- Basal_Viability ATP SW480 IC50/EC50 (SW480; assay number 24, basal): > 20 µM
- Basal_Viability ATP Colo 320 IC50/EC50 (Colo320; assay number 27, basal): > 20 µM
- Basal_Viability ATP RKO IC50/EC50 (RKO; assay number 29, basal): > 20 µM
- Basal_Viability ATP SNU-C1 IC50/EC50 (SNU-C1; assay number 30, basal): > 20 µM
- Basal_Viability ATP HCT116 IC50/EC50 (HCT116; assay number 25, basal): > 20 µM

SMILES: O.O=C1[O][Bi][O]c2ccccc21 [NCGC00166299-03]
- Basal_Viability ATP DLD-1 IC50/EC50 (DLD-1; assay number 23, basal): > 20 µM
- Basal_Viability ATP HT-29 IC50/EC50 (HT-29; assay number 28, basal): > 20 µM
- Basal_Viability ATP SW480 IC50/EC50 (SW480; assay number 24, basal): > 20 µM
- Basal_Viability ATP Colo 320 IC50/EC50 (Colo320; assay number 27, basal): > 20 µM
- Basal_Viability ATP RKO IC50/EC50 (RKO; assay number 29, basal): > 20 µM
- Basal_Viability ATP SNU-C1 IC50/EC50 (SNU-C1; assay number 30, basal): 15.3838 µM
- Basal_Viability ATP HCT116 IC50/EC50 (HCT116; assay number 25, basal): > 20 µM

SMILES: CC(C)(C)CC(C)(C)c1cc(Cc2cc(C(C)(C)CC(C)(C)C)cc(-n3nc4ccccc4n3)c2O)c(O)c(-n2nc3ccccc3n2)c1 [NCGC00167544-02]
- Basal_Viability ATP DLD-1 IC50/EC50 (DLD-1; assay number 23, basal): > 20 µM
- Basal_Viability ATP HT-29 IC50/EC50 (HT-29; assay number 28, basal): > 20 µM
- Basal_Viability ATP SW480 IC50/EC50 (SW480; assay number 24, basal): > 20 µM
- Basal_Viability ATP Colo 320 IC50/EC50 (Colo320; assay number 27, basal): > 20 µM
- Basal_Viability ATP RKO IC50/EC50 (RKO; assay number 29, basal): > 20 µM
- Basal_Viability ATP SNU-C1 IC50/EC50 (SNU-C1; assay number 30, basal): > 20 µM
- Basal_Viability ATP HCT116 IC50/EC50 (HCT116; assay number 25, basal): > 20 µM

SMILES: CC(C)=CC1C(C(=O)OCN2C(=O)C3=C(CCCC3)C2=O)C1(C)C (stereo not shown) [NCGC00168352-02]
- IC50/EC50, Basal_Viability ATP DLD-1 (assay number 23) (DLD-1; basal): > 20 µM
- IC50/EC50, Basal_Viability ATP HT-29 (assay number 28) (HT-29; basal): > 20 µM
- IC50/EC50, Basal_Viability ATP SW480 (assay number 24) (SW480; basal): > 20 µM
- IC50/EC50, Basal_Viability ATP Colo 320 (assay number 27) (Colo320; basal): > 20 µM
- IC50/EC50, Basal_Viability ATP RKO (assay number 29) (RKO; basal): > 20 µM
- IC50/EC50, Basal_Viability ATP SNU-C1 (assay number 30) (SNU-C1; basal): > 20 µM
- IC50/EC50, Basal_Viability ATP HCT116 (assay number 25) (HCT116; basal): > 20 µM

SMILES: Cc1cccc(Cc2cnc[nH]2)c1C.Cl [NCGC00182057-03]
- IC50/EC50, Basal_Viability ATP DLD-1 (assay number 23) (DLD-1; basal): > 20 µM
- IC50/EC50, Basal_Viability ATP HT-29 (assay number 28) (HT-29; basal): > 20 µM
- IC50/EC50, Basal_Viability ATP SW480 (assay number 24) (SW480; basal): > 20 µM
- IC50/EC50, Basal_Viability ATP Colo 320 (assay number 27) (Colo320; basal): > 20 µM
- IC50/EC50, Basal_Viability ATP RKO (assay number 29) (RKO; basal): > 20 µM
- IC50/EC50, Basal_Viability ATP SNU-C1 (assay number 30) (SNU-C1; basal): > 20 µM
- IC50/EC50, Basal_Viability ATP HCT116 (assay number 25) (HCT116; basal): > 20 µM
